The record followed here is US10973807B2, “Pharmaceutical composition comprising pyrrolo-fused six-membered heterocyclic compound” (Jiangsu Hengrui Medicine Co., Ltd., priority 2016, dated 2021).

The nature of data set [1]: Stability in the presence of moisture. To be noted: compound or a pharmaceutically acceptable salt thereof. It is filed as physicochemical.
Another data set is described as follows: Water solubility. It is filed as physicochemical. To be noted: compound or a pharmaceutically acceptable salt thereof.

In the case of `CCN(CC)CCN1CCc2[nH]c(/C=C3\C(=O)Nc4ccc(F)cc43)c(C)c2C1=O.O=C(O)C[C@H](O)C(=O)O` [compound of formula (I), 5-(2-diethylamino-ethyl)-2-(5-fluoro-2-oxo-1,2-dihydro-indol-3-ylidene-methyl)-3-methyl-1,5,6,7-tetrahydro-pyrrolo[3,2-c]pyridin-4-one], the “stability in the presence of moisture” value in data set [1] is “unstable”. The water solubility result in “Water solubility” was “poor”.
